Patent publication US20250304610A1, “TREHALOSE-BASED SURFACTANTS” (priority 2022, published 2025)

Tests used:
[1] = tested on: antibody; experiment: Antibody aggregation assessed by DLS after freeze-drying and storage; type: physicochemical; details: antibody 1 mg/mL, reconstituted with MilliQ water
Procedure: 500 uL of 1 mg/mL antibody formulations were placed in a vial prior to deep-freeze in liquid nitrogen. The frozen samples were placed directly in the freeze-dryer. After 24 hr, the lyophilized samples were stored in a fridge at 4° C. for 7 or 28 days. The sample were then reconstituted with addition of MilliQ® water before assessing their stability by DLS and cell binding assays.
The aggregation of antibody was assessed by dynamic light scattering (DLS) operating at 25° C. The measurements were done at different timepoints during storage at […] and right after nebulization.
The mean hydrodynamic diameter by intensities of the monomer was distributed at d=10 nm while aggregates was distributed at a d >10 nm.
The addition of 5.6 mM C16Tre1S and C8Tre1S trehalose surfactants as cryoprotectant was assessed on 1 mg/mL antibody formulations. The samples were first deep-frozen in liquid nitrogen before drying for 24 hr. The lyophilized samples were stored in a fridge for 0, 7 or 28 days before reconstitution with addition of MilliQ® water. The conformation and functionality of antibody after the process were assessed by DLS and cell binding assays respectively. The results were compared to antibody formulated in PBS only and formulated with standard cryoprotectants such as trehalose (5 wt % and 5.6 mM) and Tween 80 (5.6 mM).

[2] = tested on: SARS-CoV-2 spike-expressing HEK293 cells; type: cell-based

In the case of `OC[C@H]1O[C@H](O[C@H]2O[C@H](CO)[C@@H](O)[C@H](O)[C@H]2O)[C@H](O)[C@@H](O)[C@@H]1O` [Trehalose], the “antibody aggregation after freeze-drying (DLS)” value ([1]; excipient 5.6 mM) was “aggregations were observed”, the “antibody aggregation after freeze-drying (DLS)” value ([1]; excipient 5 wt %) was “Comparable results” and the “antibody binding to spike-expressing HEK293 cells after lyophilization (fluorescence signal)” value [2] was “significant decrease of antibody binding”.
In the case of `CCCCCCCC/C=C\CCCCCCCC(=O)OCCOCC(OCCO)C1OCC(OCCO)C1OCCO` (stereo not drawn) [Tween 80], the “antibody aggregation after freeze-drying (DLS)” value ([1]; excipient 5.6 mM) was “Comparable results”, the “antibody binding to Spike protein after nebulization of the reconstituted formulation” value [2] was “at the same level as before nebulization” and the “antibody binding to spike-expressing HEK293 cells after lyophilization (fluorescence signal)” value [2] was “Comparable results”.
